Among the data in the supplement of paper PMC10307832 are relative viability values, retold here.

Each structure is given as a SMILES string.

One test relates to NCI-H2170. Description: relative viability (nuclei count vs DMSO), 5 days (fraction); higher = more cells survive. The conditions noted are these: first compound 0.8 µM. A digest of the protocol: (§1)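 Values are medians from duplicate plates. Each reflects relative viability, defined as the nuclei count of treated wells over that of vehicle wells. Lung cancer cell lines in 1536-well plates were pin-tool dosed one day after seeding with one drug alone or with a fixed anchor-drug dose plus five library-drug doses (not always all listed) in √10 steps, then fixed, stained and imaged at 4× after 5 days.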
Turning to `Nc1cccc2c1CN(C1CCC(=O)NC1=O)C2=O` (stereo not given) [Lenalidomide] + CC(=O)c1c(C)c2cnc(Nc3ccc(N4CCNCC4)cn3)nc2n(C2CCCC2)c1=O [Palbociclib] (partner 0.5 µM), the relative viability was determined as 0.374.
Take `Nc1cccc2c1CN(C1CCC(=O)NC1=O)C2=O` (stereo not given) [Lenalidomide] + O=C(CCCCCCC(=O)Nc1ccccc1)NO [Vorinostat] (partner 1 µM): the relative viability came to 0.649.
With `Nc1cccc2c1CN(C1CCC(=O)NC1=O)C2=O` (stereo not given) [Lenalidomide] + COc1cccc2cc(-c3nc([C@H]4CC[C@H](C(=O)O)CC4)n4ncnc(N)c34)[nH]c12 [OSI-027] (partner 0.5 µM), the relative viability came out at 0.612.

The same test, now with this note: first compound 2.53 µM.
Consider `Nc1cccc2c1CN(C1CCC(=O)NC1=O)C2=O` (stereo not given) [Lenalidomide] + N=C(N)NC(=N)NCCc1ccccc1 [Phenformin] (partner 250 µM), for which the relative viability came out at 0.414.
In turn, `Nc1cccc2c1CN(C1CCC(=O)NC1=O)C2=O` (stereo not given) [Lenalidomide] + Cc1cc(Nc2cc(N3CCN(C)CC3)nc(Sc3ccc(NC(=O)C4CC4)cc3)n2)n[nH]1 [Tozasertib] (partner 0.1 µM) came in with a relative viability of 0.747.
Consider `Nc1cccc2c1CN(C1CCC(=O)NC1=O)C2=O` (stereo not given) [Lenalidomide] + CC(=O)c1c(C)c2cnc(Nc3ccc(N4CCNCC4)cn3)nc2n(C2CCCC2)c1=O [Palbociclib] (partner 0.5 µM), for which the relative viability was determined as 0.433.
With `Nc1cccc2c1CN(C1CCC(=O)NC1=O)C2=O` (stereo not given) [Lenalidomide] + O=C(CCCCCCC(=O)Nc1ccccc1)NO [Vorinostat] (partner 1 µM), the relative viability was 0.889.
With `Nc1cccc2c1CN(C1CCC(=O)NC1=O)C2=O` (stereo not given) [Lenalidomide] + COc1cccc2cc(-c3nc([C@H]4CC[C@H](C(=O)O)CC4)n4ncnc(N)c34)[nH]c12 [OSI-027] (partner 0.5 µM), the relative viability was found to be 0.817.

Still in this test, the particulars now being: first compound 8 µM.
Take `Nc1cccc2c1CN(C1CCC(=O)NC1=O)C2=O` (stereo not given) [Lenalidomide] + N=C(N)NC(=N)NCCc1ccccc1 [Phenformin] (partner 250 µM): the relative viability stood at 0.481.
The molecule `Nc1cccc2c1CN(C1CCC(=O)NC1=O)C2=O` (stereo not given) [Lenalidomide] + Cc1cc(Nc2cc(N3CCN(C)CC3)nc(Sc3ccc(NC(=O)C4CC4)cc3)n2)n[nH]1 [Tozasertib] (partner 0.1 µM) displayed a relative viability of 0.753.
The same measure, in the same setting: the result for `Nc1cccc2c1CN(C1CCC(=O)NC1=O)C2=O` (stereo not given) [Lenalidomide] + CC(=O)c1c(C)c2cnc(Nc3ccc(N4CCNCC4)cn3)nc2n(C2CCCC2)c1=O [Palbociclib] (partner 0.5 µM) reads 0.314; that for `Nc1cccc2c1CN(C1CCC(=O)NC1=O)C2=O` (stereo not given) [Lenalidomide] + O=C(CCCCCCC(=O)Nc1ccccc1)NO [Vorinostat] (partner 1 µM), 0.626; that for `Nc1cccc2c1CN(C1CCC(=O)NC1=O)C2=O` (stereo not given) [Lenalidomide] + COc1cccc2cc(-c3nc([C@H]4CC[C@H](C(=O)O)CC4)n4ncnc(N)c34)[nH]c12 [OSI-027] (partner 0.5 µM), 0.588.

The test system of a further test is NCI-H2228. Described as above. The conditions noted are these: first compound 0.253 µM. The procedure, abridged:
as §1
For `Nc1cccc2c1CN(C1CCC(=O)NC1=O)C2=O` (stereo not given) [Lenalidomide] + N=C(N)NC(=N)NCCc1ccccc1 [Phenformin] (partner 250 µM), the relative viability was found to be 0.273.
Still for that read-out and setting: to `Nc1cccc2c1CN(C1CCC(=O)NC1=O)C2=O` (stereo not given) [Lenalidomide] + Cc1cc(Nc2cc(N3CCN(C)CC3)nc(Sc3ccc(NC(=O)C4CC4)cc3)n2)n[nH]1 [Tozasertib] (partner 0.1 µM) belongs 0.288.
On the same count and under the same terms, the result for `Nc1cccc2c1CN(C1CCC(=O)NC1=O)C2=O` (stereo not given) [Lenalidomide] + CC(=O)c1c(C)c2cnc(Nc3ccc(N4CCNCC4)cn3)nc2n(C2CCCC2)c1=O [Palbociclib] (partner 0.5 µM) reads 1.05; that for `Nc1cccc2c1CN(C1CCC(=O)NC1=O)C2=O` (stereo not given) [Lenalidomide] + O=C(CCCCCCC(=O)Nc1ccccc1)NO [Vorinostat] (partner 1 µM), 0.451.
The molecule `Nc1cccc2c1CN(C1CCC(=O)NC1=O)C2=O` (stereo not given) [Lenalidomide] + COc1cccc2cc(-c3nc([C@H]4CC[C@H](C(=O)O)CC4)n4ncnc(N)c34)[nH]c12 [OSI-027] (partner 0.5 µM) gave a relative viability of 0.568.

Still in this test, the particulars now being: first compound 0.8 µM.
In turn, `Nc1cccc2c1CN(C1CCC(=O)NC1=O)C2=O` (stereo not given) [Lenalidomide] + N=C(N)NC(=N)NCCc1ccccc1 [Phenformin] (partner 250 µM) yielded a relative viability of 0.327.
Take `Nc1cccc2c1CN(C1CCC(=O)NC1=O)C2=O` (stereo not given) [Lenalidomide] + Cc1cc(Nc2cc(N3CCN(C)CC3)nc(Sc3ccc(NC(=O)C4CC4)cc3)n2)n[nH]1 [Tozasertib] (partner 0.1 µM): the relative viability came out at 0.338.
The molecule `Nc1cccc2c1CN(C1CCC(=O)NC1=O)C2=O` (stereo not given) [Lenalidomide] + CC(=O)c1c(C)c2cnc(Nc3ccc(N4CCNCC4)cn3)nc2n(C2CCCC2)c1=O [Palbociclib] (partner 0.5 µM) showed a relative viability of 0.36.
As for `Nc1cccc2c1CN(C1CCC(=O)NC1=O)C2=O` (stereo not given) [Lenalidomide] + O=C(CCCCCCC(=O)Nc1ccccc1)NO [Vorinostat] (partner 1 µM), the relative viability was 0.505.
On the same count and under the same terms, to `Nc1cccc2c1CN(C1CCC(=O)NC1=O)C2=O` (stereo not given) [Lenalidomide] + COc1cccc2cc(-c3nc([C@H]4CC[C@H](C(=O)O)CC4)n4ncnc(N)c34)[nH]c12 [OSI-027] (partner 0.5 µM) belongs 0.641.

The same test, now with this note: first compound 2.53 µM.
Consider `Nc1cccc2c1CN(C1CCC(=O)NC1=O)C2=O` (stereo not given) [Lenalidomide] + N=C(N)NC(=N)NCCc1ccccc1 [Phenformin] (partner 250 µM), for which the relative viability is 0.27.
Still for that read-out and setting: to `Nc1cccc2c1CN(C1CCC(=O)NC1=O)C2=O` (stereo not given) [Lenalidomide] + Cc1cc(Nc2cc(N3CCN(C)CC3)nc(Sc3ccc(NC(=O)C4CC4)cc3)n2)n[nH]1 [Tozasertib] (partner 0.1 µM) belongs 0.283.
For the molecule `Nc1cccc2c1CN(C1CCC(=O)NC1=O)C2=O` (stereo not given) [Lenalidomide] + CC(=O)c1c(C)c2cnc(Nc3ccc(N4CCNCC4)cn3)nc2n(C2CCCC2)c1=O [Palbociclib] (partner 0.5 µM), the relative viability amounted to 1.04.
For `Nc1cccc2c1CN(C1CCC(=O)NC1=O)C2=O` (stereo not given) [Lenalidomide] + O=C(CCCCCCC(=O)Nc1ccccc1)NO [Vorinostat] (partner 1 µM), the relative viability is 1.09.
Regarding `Nc1cccc2c1CN(C1CCC(=O)NC1=O)C2=O` (stereo not given) [Lenalidomide] + COc1cccc2cc(-c3nc([C@H]4CC[C@H](C(=O)O)CC4)n4ncnc(N)c34)[nH]c12 [OSI-027] (partner 0.5 µM), the relative viability was determined as 0.672.

The test is the same for the next values; noted with them: first compound 8 µM.
For the molecule `Nc1cccc2c1CN(C1CCC(=O)NC1=O)C2=O` (stereo not given) [Lenalidomide] + N=C(N)NC(=N)NCCc1ccccc1 [Phenformin] (partner 250 µM), the relative viability came out at 0.264.
Consider `Nc1cccc2c1CN(C1CCC(=O)NC1=O)C2=O` (stereo not given) [Lenalidomide] + Cc1cc(Nc2cc(N3CCN(C)CC3)nc(Sc3ccc(NC(=O)C4CC4)cc3)n2)n[nH]1 [Tozasertib] (partner 0.1 µM), for which the relative viability worked out at 0.345.
